For orientation: IC50 means the concentration that inhibits the measured activity by half.

In the first experiment the test system is IL-1β production in PMA-differentiated THP-1 cells. Description: IL-1β production in PMA-differentiated THP-1 cells stimulated with gramicidin (hTHP-1 assay, 2% fetal bovine serum; Procedures 1-3). In kind it is cell-based, human. As to conditions: Homo sapiens, THP-1, hTHP-1 assay containing 2% fetal bovine serum; bound; read-out: hTHP-1 IC50 (Average IC50 of compounds in hTHP-1 assay). The protocol: The following protocol is suitable for testing the activity of the compounds disclosed herein.
Procedure 1: IL-1β Production in PMA-Differentiated THP-1 Cells Stimulated with Gramicidin
THP-1 cells were purchased from the American Type Culture Collection and sub-cultured according to instructions from the supplier. Cells were cultured in complete RPMI 1640 (containing 10% heat inactivated FBS, penicillin (100 units/ml) and streptomycin (100 μg/ml)), and maintained in log phase prior to experimental setup. Prior to the experiment, compounds were dissolved in dimethyl sulfoxide (DMSO) to generate a 30 mM stock. The compound stock was first pre-diluted in DMSO to 3, 0.34, 0.042 and 0.0083 mM intermediate concentrations and subsequently spotted using Echo550 liquid handler into an empty 384-well assay plate to achieve desired final concentration (e.g. 100, 33, 11, 3.7, 1.2, 0.41, 0.14, 0.046, 0.015, 0.0051, 0.0017 μM). DMSO was backfilled in the plate to achieve a final DMSO assay concentration of 0.37%. The plate was then sealed and stored at room temperature until required.
THP-1 cells were treated with PMA (Phorbol 12-myristate 13-acetate) (20 ng/ml) for 16-18 hours. On the day of the experiment the media was removed and adherent cells were detached with trypsin for 5 minutes. Cells were then harvested, washed with complete RPMI 1640, spun down, and resuspended in RPMI 1640 (containing 2% heat inactivated FBS, penicillin (100 units/ml) and streptomycin (100 μg/ml). The cells were plated in the 384-well assay plate containing the spotted compounds at a density of 50,000 cells/well (final assay volume 50 μl). Cells were incubated with compounds for 1 hour and then stimulated with gramicidin (5 μM) (Enzo) for 2 hours. Plates were then centrifuged at 340 g for 5 min. Cell free supernatant (40 μL) was collected using a 96-channel PlateMaster (Gilson) and the production of IL-1β was evaluated by HTRF (cisbio). The plates were incubated for 18 h at 4° C. and read using the preset HTRF program (donor emission at 620 nm, acceptor emission at 668 nm) of the SpectraMax i3x spectrophotometer (Molecular Devices, software SoftMax 6). A vehicle only control and a dose titration of CRID3 (100-0.0017 μM) were run concurrently with each experiment.
Procedure 2: IL-1β Production in PMA-Differentiated THP-1 Cells Stimulated with Gramicidin
THP-1 cells were purchased from the American Type Culture Collection and sub-cultured according to instructions from the supplier. Prior to experiments, cells were cultured in complete RPMI 1640 (containing 10% heat inactivated FBS, penicillin (100 units/ml) and streptomycin (100 μg/ml)), and maintained in log phase prior to experimental setup. Prior to the experiment THP-1 were treated with PMA (Phorbol 12-myristate 13-acetate) (20 ng/ml) for 16-18 hours. Compounds were dissolved in dimethyl sulfoxide (DMSO) to generate a 30 mM stock. On the day of the experiment the media was removed and adherent cells were detached with trypsin for 5 minutes. Cells were then harvested, washed with complete RPMI 1640, spun down, resuspended in RPMI 1640 (containing 2% heat inactivated FBS, penicillin (100 units/ml) and streptomycin (100 μg/ml). The cells were plated in a 384-well plate at a density of 50,000 cells/well (final assay volume 50 μl). Compounds were first dissolved in assay medium to obtain a 5× top concentration of 500 μM. 10 step dilutions (1:3) were then undertaken in assay medium containing 1.67% DMSO. 5× compound solutions were added to the culture medium to achieve desired final concentration (e.g. 100, 33, 11, 3.7, 1.2, 0.41, 0.14, 0.046, 0.015, 0.0051, […]). Final DMSO concentration was at 0.37%. Cells were incubated with compounds for 1 hour and then stimulated with gramicidin (5 μM) (Enzo) for 2 hours. Plates were then centrifuged at 340 g for 5 min. Cell free supernatant (40 μL) was collected using a 96-channel PlateMaster (Gilson) and the production of IL-1β was evaluated by HTRF (cisbio). […]
For `CNS(=O)(=NC(=O)N(C)c1c2c(cc3c1CCC3)CCC2)c1cnc(C(C)(C)O)s1` (stereo not drawn) [Compound 249], the IC50 is above 30000 nM.

The experiment is the same for the next values; noted with them: Homo sapiens, THP-1, hTHP-1 assay containing 2% fetal bovine serum; class symbols; read-out: hTHP-1 IC50 (Average IC50 of compounds in hTHP-1 assay).
Take `CC(C)(O)c1cc(F)cc(S(N)(=O)=NC(=O)Nc2c3c(c(F)c4c2CCC4)CCC3)c1` (stereo not drawn) [Example 56, 3-fluoro-N′-((8-fluoro-1,2,3,5,6,7-hexahydro-s-indacen-4-yl)carbamoyl)-5-(2-hydroxypropan-2-yl)benzenesulfonimidamide]: the IC50 was 200 to 1000 nM.
Turning to `CN(C(=O)N=S(N)(=O)c1cnc(C(C)(C)O)s1)c1c2c(cc3c1CCC3)CCC2` (stereo not drawn) [Example 248, N′-((1,2,3,5,6,7-hexahydro-s-indacen-4-yl)(methyl)carbamoyl)-2-(2-hydroxypropan-2-yl)thiazole-5-sulfonimidamide], the IC50 lay in the range of 5000 to 30000 nM.
Still for that read-out and setting: under `CC(C)c1cc(F)cc(C(C)C)c1NC(=O)N=S(N)(=O)c1ccc(C(C)(C)O)s1` (stereo not drawn) [Example 49, N′-(4-fluoro-2,6-diisopropylphenylcarbamoyl)-5-(2-hydroxypropan-2-yl)thiophene-2-sulfonimidamide] stands 200 to 1000 nM.

Staying with this experiment, now noted: hTHP-1 assay containing 2% fetal bovine serum; class symbols; read-out: hTHP-1 IC50 (Average IC50 of compounds in hTHP-1 assay).
On to `CC(C)(O)c1cnc(S(N)(=O)=NC(=O)Nc2c3c(cc4c2CCO4)CCC3)s1` (single isomer, unassigned) [Example 348, (S) or (R)-5-(2-hydroxypropan-2-yl)-N′-((3,5,6,7-tetrahydro-2H-indeno[5,6-b]furan-4-yl)carbamoyl)thiazole-2-sulfonimidamide], for which the IC50 is 1000 to 5000 nM.
`CNCc1ccc(S(N)(=O)=NC(=O)Nc2c3c(cc4c2CCC4)CCC3)c(F)c1` (single isomer, unassigned) [Example 404, (S) or (R)-2-fluoro-N′-((1,2,3,5,6,7-hexahydro-s-indacen-4-yl)carbamoyl)-4-((methylamino)methyl)benzenesulfonimidamide]: the IC50 is 5000 to 30000 nM.
On to `CC(C)(O)c1cc(F)cc(S(N)(=O)=NC(=O)Nc2c3c(c(F)c4c2CCC4)CCC3)c1` (single isomer, unassigned) [Example 171], for which the IC50 was 200 to 1000 nM.
For `CC(C)(O)c1csc(S(N)(=O)=NC(=O)Nc2c3c(c(F)c4c2CCC4)CCC3)n1` (single isomer, unassigned) [Example 310, (R) or (S)-N′-((8-fluoro-1,2,3,5,6,7-hexahydro-s-indacen-4-yl)carbamoyl)-4-(2-hydroxypropan-2-yl)thiazole-2-sulfonimidamide], the IC50 fell in the range of 8 to 40 nM.
As to `CC1CCc2cc3c(c(NC(=O)N=S(N)(=O)c4cnc(C(C)(C)O)s4)c21)CCC3` (single isomer, unassigned) [Example 334, (R,S) or (R,R)-2-(2-hydroxypropan-2-yl)-N′-((3-methyl-1,2,3,5,6,7-hexahydro-s-indacen-4-yl)carbamoyl)thiazole-5-sulfonimidamide], the IC50 fell in the range of 8 to 40 nM.
For `CN(C)Cc1cccc(S(N)(=O)=NC(=O)Nc2c3c(cc4c2CCC4)CCC3)c1` (single isomer, unassigned) [Example 161], the IC50 lay within 5000 to 30000 nM.
`CC(C)(O)c1ccc(S(N)(=O)=NC(=O)Nc2c3c(c(F)c4c2CCC4)CCC3)c(Cl)c1` (single isomer, unassigned) [Example 158]: the IC50 is 1000 to 5000 nM.
Same read-out and setting: under `CC(C)(O)c1ncc(S(N)(=O)=NC(=O)Nc2c3c(cc4c2OCC4)CCC3)s1` (single isomer, unassigned) [Example 344, (R) or (S)-2-(2-hydroxypropan-2-yl)-N′-((3,5,6,7-tetrahydro-2H-indeno[5,6-b]furan-8-yl)carbamoyl)thiazole-5-sulfonimidamide] stands 1000 to 5000 nM; under `Cc1sc(S(N)(=O)=NC(=O)Nc2c3c(cc4c2CCC4)CCC3)nc1C(C)(C)O` (single isomer, unassigned) [Example 359, (R) or (S)-N′-((1,2,3,5,6,7-hexahydro-s-indacen-4-yl)carbamoyl)-4-(2-hydroxypropan-2-yl)-5-methylthiazole-2-sulfonimidamide], 8 to 40 nM; under `CNS(=O)(=NC(=O)Nc1c2c(c(F)c3c1CCC3)CCC2)c1cc(C(C)(C)O)cs1` (single isomer, unassigned) [Example 181], 5000 to 30000 nM.
Take `CC(C)(O)c1cc(S(N)(=O)=NC(=O)Nc2c3c(cc4c2CCC4)CCC3)nn1-c1ccccc1` (single isomer, unassigned) [Example 308, (S) or (R)-N′-((1,2,3,5,6,7-hexahydro-s-indacen-4-yl)carbamoyl)-5-(2-hydroxypropan-2-yl)-1-phenyl-1H-pyrazole-3-sulfonimidamide]: the IC50 fell in the range of 1000 to 5000 nM.
With `CN(C)Cc1ccc(S(N)(=O)=NC(=O)Nc2c3c(cc4c2CCC4)CCC3)c(F)c1` (single isomer, unassigned) [Example 155], the IC50 lay in the range of 1000 to 5000 nM.
Turning to `CC(C)(O)c1cnc(S(N)(=O)=NC(=O)Nc2c3c(c(Br)c4c2CCC4)CCC3)s1` (single isomer, unassigned) [Example 352, (R) or (S)-N′-((8-bromo-1,2,3,5,6,7-hexahydro-s-indacen-4-yl)carbamoyl)-5-(2-hydroxypropan-2-yl)thiazole-2-sulfonimidamide], the IC50 lay in the range of 40 to 200 nM.
Take `CC(C)(O)c1ncc(S(N)(=O)=NC(=O)Nc2c3c(c(OC(F)F)c4c2CCC4)CCC3)s1` (single isomer, unassigned) [Example 115]: the IC50 lay within 1000 to 5000 nM.
For `CC(c1ccc(S(N)(=O)=NC(=O)Nc2c3c(cc4c2CCC4)CCC3)cc1)N(C)C` (single isomer, unassigned) [Example 375, (S,R) or (S,S) or (R,S) or (R,R)-4-(1-(dimethylamino)ethyl)-N′-((1,2,3,5,6,7-hexahydro-s-indacen-4-yl)carbamoyl)benzenesulfonimidamide], the IC50 fell in the range of 5000 to 30000 nM.
`CC(C)(O)c1csc(S(N)(=O)=NC(=O)Nc2c3c(cc4c2OCC4)CCC3)n1` (single isomer, unassigned) [Example 354, (R) or (S)-4-(2-hydroxypropan-2-yl)-N′-((3,5,6,7-tetrahydro-2H-indeno[5,6-b]furan-8-yl)carbamoyl)thiazole-2-sulfonimidamide]: the IC50 is 8 to 40 nM.
On to `CC1CCc2c1cc1c(c2NC(=O)N=S(N)(=O)c2cnc(C(C)(C)O)s2)CCC1` (single isomer, unassigned) [Example 324, (R,S) or (R,R)-2-(2-hydroxypropan-2-yl)-N′-((1-methyl-1,2,3,5,6,7-hexahydro-s-indacen-4-yl)carbamoyl)thiazole-5-sulfonimidamide (from Example 291)], for which the IC50 is 8 to 40 nM.
Take `Cc1oc(S(N)(=O)=NC(=O)Nc2c3c(cc4c2C(C)CC4)CCC3)cc1C(C)(C)O` (single isomer, unassigned) [Example 126]: the IC50 lay within 1000 to 5000 nM.
Still for that read-out and setting: in the case of `CC(C)(O)c1ncc(S(N)(=O)=NC(=O)Nc2c3c(cc4c2CC4)CC3)s1` (single isomer, unassigned) [Example 355, (R) or (S)-2-(2-hydroxypropan-2-yl)-N′-(tricyclo[6.2.0.03,6]deca-1,3(6),7-trien-2-ylcarbamoyl)thiazole-5-sulfonimidamide] it was below 8 nM.
Regarding `CN(C)Cc1ccc(S(N)(=O)=NC(=O)Nc2c3c(cc4c2CCC4)CCC3)c(F)c1` (single isomer, unassigned) [Example 154], the IC50 lay in the range of 40 to 200 nM.

The record behind these values is patent US11724992B2 (Novartis AG, priority 2017, dated 2023).
